Experimental data reported in article PMC11999303 (iScience, 2025).
Entries after “also recorded” stand apart in the source; their conditions may differ.

Each sequence was assayed against I-A^b (Mus musculus, UniProt P14434+P14483) (assay: MHC2-SCALE peptide exchange with 2D-LCMS detection on I-A^b). Details: single peptide, lowmCLIP-I-A^b, standard exchange pH 5, 2D-LCMS.
Type: binding

Sequence of I-A^b (P14434 whole entry, looked up): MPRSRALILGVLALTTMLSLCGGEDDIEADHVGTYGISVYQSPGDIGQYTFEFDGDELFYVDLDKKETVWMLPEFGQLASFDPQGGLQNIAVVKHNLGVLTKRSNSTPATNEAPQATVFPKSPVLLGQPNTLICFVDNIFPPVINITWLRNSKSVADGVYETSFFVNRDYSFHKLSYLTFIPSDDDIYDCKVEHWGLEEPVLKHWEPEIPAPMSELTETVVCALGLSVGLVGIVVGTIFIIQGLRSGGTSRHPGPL
Sequence of I-A^b (P14483 whole entry, looked up): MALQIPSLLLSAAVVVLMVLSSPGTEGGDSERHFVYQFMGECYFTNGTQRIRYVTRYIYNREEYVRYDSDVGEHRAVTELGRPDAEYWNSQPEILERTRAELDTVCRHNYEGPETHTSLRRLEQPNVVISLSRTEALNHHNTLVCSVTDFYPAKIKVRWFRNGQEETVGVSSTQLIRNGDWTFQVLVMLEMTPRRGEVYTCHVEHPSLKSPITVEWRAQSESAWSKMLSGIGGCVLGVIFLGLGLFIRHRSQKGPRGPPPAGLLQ

Sequence	peptide exchange / binding to I-A^b by MHC2-SCALE, in words
DRGVIMSAHSLTNSS [M57-A]	binders
HYKYMCNSSCMGVMN [M112-A]	bound; also recorded: strong binder
LPLQPFQLAFGHLVN [M46-A]	complete peptide exchange
LQPFQLAFGHLVNRQV [M46-B]	complete peptide exchange
VIMSAHSLTNSSSDF [M57-B]	binders
